From patent US12390440B2, “Immunomodulating trifluoromethyl-aminal azalides” (Zoetis Services LLC, priority 2020, dated 2025)
Read-outs that look alike come from different tables or passages of the source.

Assays:
IL-1β = test: Bovine whole blood assay, IL-1β; type: cell-based; conditions: overstimulation of IL-1β, perceived cellular toxicity concentration;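 note: compound concentration at which rising IL-1β release signals cytotoxicity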
Procedure: (§1) (protected from light) for 30 minutes.

TNF-α = test: Bovine whole blood assay, LPS-induced TNF-α; type: cell-based; conditions: Bos taurus, fresh whole bovine blood, LPS 1 μg/mL
Procedure: as §1

[1] = test system: BRD pathogens, M. haemolytica and P. multocida; test: MIC screening panel, BRD pathogens (CLSI broth micro-dilution)

Row | SMILES | IL-1β OS of LPS (IL-1β) | IC50 (TNF-α) | MIC ([1]; read-out: MIC flag (*) at Ex #) | MIC ([1]; read-out: MIC flag (*) at Example #)
1 | CCNC[C@]1(O)[C@H](C)O[C@@H](O[C@H]2[C@H](C)[C@@H](O[C@@H]3O[C@H](C)C[C@H]4[C@H]3OC(C(F)(F)F)N4C)[C@](C)(O)C[C@@H](C)CN[C@H](C)[C@@H](O)[C@](C)(O)[C@@H](CC)OC(=O)[C@@H]2C)C[C@@]1(C)OC (stereo partly drawn) [Example A-5, (2R,3S,4R,5R,8R,10R,11R,12S,13S,14R)-11-(((3aR,4S,6R,7aS)-1,6-dimethyl-2-(trifluoromethyl)hexahydro-2H-pyrano[4,3-d]oxazol-4-yl)oxy)-2-ethyl-13-(((2R,4R,5S,6S)-5-((ethylamino)methyl)-5-hydroxy-4-methoxy-4,6-dimethyltetrahydro-2H-pyran-2-yl)oxy)-3,4,10-trihydroxy-3,5,8,10,12,14-hexamethyl-1-oxa-6-azacyclopentadecan-15-one] | 5 µM | 5 µM | – | –
2 | CC[C@H]1OC(=O)[C@H](C)[C@@H](O[C@H]2C[C@@](C)(OC)[C@](O)(CNCc3ncc[nH]3)[C@H](C)O2)[C@H](C)[C@@H](O[C@@H]2O[C@H](C)C[C@H]3[C@H]2OC(C(F)(F)F)N3C)[C@](C)(O)C[C@@H](C)CN[C@H](C)[C@@H](O)[C@]1(C)O (stereo partly drawn) [Example A-11, (2R,3S,4R,5R,8R,10R,11R,12S,13S,14R)-13-(((2R,4R,5S,6S)-5-((((1H-imidazol-2-yl)methyl)amino)methyl)-5-hydroxy-4-methoxy-4,6-dimethyltetrahydro-2H-pyran-2-yl)oxy)-11-(((3aR,4S,6R,7aS)-1,6-dimethyl-2-(trifluoromethyl)hexahydro-2H-pyrano[4,3-d]oxazol-4-yl)oxy)-2-ethyl-3,4,10-trihydroxy-3,5,8,10,12,14-hexamethyl-1-oxa-6-azacyclopentadecan-15-one] | 40 µM | 101 µM | < 64 µg/mL | –
3 | CC[C@H]1OC(=O)[C@H](C)[C@@H](O[C@H]2C[C@@](C)(OC)[C@](O)(CNCCS(=O)(=O)N(C)C)[C@H](C)O2)[C@H](C)[C@@H](O[C@@H]2O[C@H](C)C[C@H]3[C@H]2OC(C(F)(F)F)N3C)[C@](C)(O)C[C@@H](C)CN[C@H](C)[C@@H](O)[C@]1(C)O (stereo partly drawn) [Example A-13, 2-((((2S,3S,4R,6R)-6-(((2R,3S,4R,5R,8R,10R,11R,12S,13S,14R)-11-(((3aR,4S,6R,7aS)-1,6-dimethyl-2-(trifluoromethyl)hexahydro-2H-pyrano[4,3-d]oxazol-4-yl)oxy)-2-ethyl-3,4,10-trihydroxy-3,5,8,10,12,14-hexamethyl-15-oxo-1-oxa-6-azacyclopentadecan-13-yl)oxy)-3-hydroxy-4-methoxy-2,4-dimethyltetrahydro-2H-pyran-3-yl)methyl)amino)-N,N-dimethylethane-1-sulfonamide] | 40 µM | 18 µM | – | –
4 | CC[C@H]1OC(=O)[C@H](C)[C@@H](O[C@H]2C[C@@](C)(OC)[C@](O)(CNCCn3cncn3)[C@H](C)O2)[C@H](C)[C@@H](O[C@@H]2O[C@H](C)C[C@H]3[C@H]2OC(C(F)(F)F)N3C)[C@](C)(O)C[C@@H](C)CN[C@H](C)[C@@H](O)[C@]1(C)O (stereo partly drawn) [Example A-14, (2R,3S,4R,5R,8R,10R,11R,12S,13S,14R)-13-(((2R,4R,5S,6S)-5-(((2-(1H-1,2,4-triazol-1-yl)ethyl)amino)methyl)-5-hydroxy-4-methoxy-4,6-dimethyltetrahydro-2H-pyran-2-yl)oxy)-11-(((3aR,4S,6R,7aS)-1,6-dimethyl-2-(trifluoromethyl)hexahydro-2H-pyrano[4,3-d]oxazol-4-yl)oxy)-2-ethyl-3,4,10-trihydroxy-3,5,8,10,12,14-hexamethyl-1-oxa-6-azacyclopentadecan-15-one] | 40 µM | 30 µM | < 64 µg/mL | –
5 | CC[C@H]1OC(=O)[C@H](C)[C@@H](O[C@H]2C[C@@](C)(OC)[C@](O)(CNCCOCCO)[C@H](C)O2)[C@H](C)[C@@H](O[C@@H]2O[C@H](C)C[C@H]3[C@H]2OC(C(F)(F)F)N3C)[C@](C)(O)C[C@@H](C)CN[C@H](C)[C@@H](O)[C@]1(C)O (stereo partly drawn) [Example A-16, (2R,3S,4R,5R,8R,10R,11R,12S,13S,14R)-11-(((3aR,4S,6R,7aS)-1,6-dimethyl-2-(trifluoromethyl)hexahydro-2H-pyrano[4,3-d]oxazol-4-yl)oxy)-2-ethyl-3,4,10-trihydroxy-13-(((2R,4R,5S,6S)-5-hydroxy-5-(((2-(2-hydroxyethoxy)ethyl)amino)methyl)-4-methoxy-4,6-dimethyltetrahydro-2H-pyran-2-yl)oxy)-3,5,8,10,12,14-hexamethyl-1-oxa-6-azacyclopentadecan-15-one] | 40 µM | 28 µM | – | –
6 | CC[C@H]1OC(=O)[C@H](C)[C@@H](O[C@H]2C[C@@](C)(OC)[C@](O)(CNCCC(=O)N(C)C)[C@H](C)O2)[C@H](C)[C@@H](O[C@@H]2O[C@H](C)C[C@H]3[C@H]2OC(C(F)(F)F)N3C)[C@](C)(O)C[C@@H](C)CN[C@H](C)[C@@H](O)[C@]1(C)O (stereo partly drawn) [Example A-17, 3-((((2S,3S,4R,6R)-6-(((2R,3S,4R,5R,8R,10R,11R,12S,13S,14R)-11-(((3aR,4S,6R,7aS)-1,6-dimethyl-2-(trifluoromethyl)hexahydro-2H-pyrano[4,3-d]oxazol-4-yl)oxy)-2-ethyl-3,4,10-trihydroxy-3,5,8,10,12,14-hexamethyl-15-oxo-1-oxa-6-azacyclopentadecan-13-yl)oxy)-3-hydroxy-4-methoxy-2,4-dimethyltetrahydro-2H-pyran-3-yl)methyl)amino)-N,N-dimethylpropanamide] | – | – | < 64 µg/mL | –
7 | CC[C@H]1OC(=O)[C@H](C)[C@@H](O[C@H]2C[C@@](C)(OC)[C@](O)(CNCC3CCN(C(C)=O)CC3)[C@H](C)O2)[C@H](C)[C@@H](O[C@@H]2O[C@H](C)C[C@H]3[C@H]2OC(C(F)(F)F)N3C)[C@](C)(O)C[C@@H](C)CN[C@H](C)[C@@H](O)[C@]1(C)O (stereo partly drawn) [Example A-18, (2R,3S,4R,5R,8R,10R,11R,12S,13S,14R)-13-(((2R,4R,5S,6S)-5-((((1-acetylpiperidin-4-yl)methyl)amino)methyl)-5-hydroxy-4-methoxy-4,6-dimethyltetrahydro-2H-pyran-2-yl)oxy)-11-(((3aR,4S,6R,7aS)-1,6-dimethyl-2-(trifluoromethyl)hexahydro-2H-pyrano[4,3-d]oxazol-4-yl)oxy)-2-ethyl-3,4,10-trihydroxy-3,5,8,10,12,14-hexamethyl-1-oxa-6-azacyclopentadecan-15-one] | – | – | < 64 µg/mL | –
8 | CC[C@H]1OC(=O)[C@H](C)[C@@H](O[C@H]2C[C@@](C)(OC)[C@](O)(CNCCn3ccccc3=O)[C@H](C)O2)[C@H](C)[C@@H](O[C@@H]2O[C@H](C)C[C@H]3[C@H]2OC(C(F)(F)F)N3C)[C@](C)(O)C[C@@H](C)CN[C@H](C)[C@@H](O)[C@]1(C)O (stereo partly drawn) [Example A-19, (2R,3S,4R,5R,8R,10R,11R,12S,13S,14R)-11-(((3aR,4S,6R,7aS)-1,6-dimethyl-2-(trifluoromethyl)hexahydro-2H-pyrano[4,3-d]oxazol-4-yl)oxy)-2-ethyl-3,4,10-trihydroxy-13-(((2R,4R,5S,6S)-5-hydroxy-4-methoxy-4,6-dimethyl-5-(((2-(2-oxopyridin-1(2H)-yl)ethyl)amino)methyl)tetrahydro-2H-pyran-2-yl)oxy)-3,5,8,10,12,14-hexamethyl-1-oxa-6-azacyclopentadecan-15-one] | – | – | < 64 µg/mL | –
9 | CC[C@H]1OC(=O)[C@H](C)[C@@H](O[C@H]2C[C@@](C)(OC)[C@](O)(CNCCS(N)(=O)=O)[C@H](C)O2)[C@H](C)[C@@H](O[C@@H]2O[C@H](C)C[C@H]3[C@H]2OC(C(F)(F)F)N3C)[C@](C)(O)C[C@@H](C)CN[C@H](C)[C@@H](O)[C@]1(C)O (stereo partly drawn) [Example A-20, 2-((((2S,3S,4R,6R)-6-(((2R,3S,4R,5R,8R,10R,11R,12S,13S,14R)-11-(((3aR,4S,6R,7aS)-1,6-dimethyl-2-(trifluoromethyl)hexahydro-2H-pyrano[4,3-d]oxazol-4-yl)oxy)-2-ethyl-3,4,10-trihydroxy-3,5,8,10,12,14-hexamethyl-15-oxo-1-oxa-6-azacyclopentadecan-13-yl)oxy)-3-hydroxy-4-methoxy-2,4-dimethyltetrahydro-2H-pyran-3-yl)methyl)amino)ethane-1-sulfonamide] | 100 µM | 141 µM | – | –
10 | CCCNC[C@]1(O)[C@H](C)O[C@@H](O[C@H]2[C@H](C)[C@@H](O[C@@H]3O[C@H](C)C[C@H]4[C@H]3OC(C(F)(F)F)N4C)[C@](C)(O)C[C@@H](C)CN(C)[C@H](C)[C@@H](O)[C@](C)(O)[C@@H](CC)OC(=O)[C@@H]2C)C[C@@]1(C)OC (stereo partly drawn) [Example A-26, (2R,3S,4R,5R,8R,10R,11R,12S,13S,14R)-11-(((3aR,4S,6R,7aS)-1,6-dimethyl-2-(trifluoromethyl)hexahydro-2H-pyrano[4,3-d]oxazol-4-yl)oxy)-2-ethyl-3,4,10-trihydroxy-13-(((2R,4R,5S,6S)-5-hydroxy-4-methoxy-4,6-dimethyl-5-((propylamino)methyl)tetrahydro-2H-pyran-2-yl)oxy)-3,5,6,8,10,12,14-heptamethyl-1-oxa-6-azacyclopentadecan-15-one] | – | – | < 64 µg/mL | –
11 | CC[C@H]1OC(=O)[C@H](C)[C@@H](O[C@H]2C[C@@](C)(OC)[C@@H](O)[C@H](C)O2)[C@H](C)[C@@H](O[C@@H]2O[C@H](C)C[C@H]3[C@H]2OC(C(F)(F)F)N3C)[C@](C)(O)C[C@@H](C)CN(C)[C@H](C)[C@@H](O)[C@]1(C)O (stereo partly drawn) [Example C-1, (2R,3S,4R,5R,8R,10R,11R,12S,13S,14R)-11-(((3aR,4S,6R,7aS)-1,6-dimethyl-2-(trifluoromethyl)hexahydro-2H-pyrano[4,3-d]oxazol-4-yl)oxy)-2-ethyl-3,4,10-trihydroxy-13-(((2R,4R,5S,6S)-5-hydroxy-4-methoxy-4,6-dimethyltetrahydro-2H-pyran-2-yl)oxy)-3,5,6,8,10,12,14-heptamethyl-1-oxa-6-azacyclopentadecan-15-one] | – | – | – | < 64 µg/mL
